# Test results as given in patent publication US12336995B2, “Combination therapies” (Mirati Therapeutics, Inc., priority 2018, dated 2025).
# Key:
# LU6405 cells (PDX model) = experiment: In vivo PDX model, Compound 478 and Afatinib (Table 4c); conditions: LU6405, Afatinib 12.5 mg/kg, single or combined
# Experimental: (§1) Immunocompromised nude/nude mice were inoculated in the right hind flank with cells or patient derived tumor samples harboring a KRas G12C mutation. […] The first group was administered vehicle only. […] The fourth group was administered the single agent dose of the KRas G12C inhibitor in combination with the single agent dose of the pan ErbB family inhibitor. […] Tumor volumes were measured using a caliper every two-three days and tumor volumes were calculated by the formula: 0.5×(Length×Width)^2.
# (§2) Tumor volumes were measured at pre-specified days set forth below.
# KYSE-410 cells = experiment: In vivo tumor model, Compound 478 and Afatinib (Table 4b); conditions: KYSE-410, Afatinib 12.5 mg/kg, single or combined
# Experimental: as §1, §2
# H2122 cells = experiment: In vivo tumor model, Compound 478 and Afatinib (Table 4a); conditions: for Average Tumor Volumes: H2122, Afatinib 12.5 mg/kg, single or combined
# Experimental: as §1, §2
# [1] = Day 11 post implant (treatment start), p.o. daily: Compound 478 100 mg/kg
# [2] = Day 14 post implant, p.o. daily from Day 11: Compound 478 100 mg/kg
# [3] = Day 18 post implant, p.o. daily from Day 11: Compound 478 100 mg/kg
# [4] = Day 21 post implant, p.o. daily from Day 11: Compound 478 100 mg/kg
# [5] = Day 25 post implant, p.o. daily from Day 11: Compound 478 100 mg/kg
# [6] = Day 28 post implant, p.o. daily from Day 11: Compound 478 100 mg/kg
# [7] = Day 32 post implant, p.o. daily from Day 11: Compound 478 100 mg/kg
# [8] = Day 34 post implant, p.o. daily from Day 11: Compound 478 100 mg/kg
smiles,measurement,setting,value
"CN(C)C/C=C/C(=O)Nc1cc2c(Nc3ccc(F)c(Cl)c3)ncnc2cc1OC1CCOC1 (centres unmarked) [Afatinib, (E)-N-(4-((3-chloro-4-fluorophenyl)amino)-7-((tetrahydrofuran-3-yl)oxy)quinazolin-6-yl)-4-(dimethylamino)but-2-enamide, reference compound]",Average Tumor Volumes,LU6405 cells (PDX model); [1],257.48 mm^3
same,Average Tumor Volumes,LU6405 cells (PDX model); [2],371.98 mm^3
same,Average Tumor Volumes,LU6405 cells (PDX model); [3],585.54 mm^3
same,Average Tumor Volumes,LU6405 cells (PDX model); [4],775.75 mm^3
same,Average Tumor Volumes,LU6405 cells (PDX model); [5],1056.23 mm^3
same,Average Tumor Volumes,LU6405 cells (PDX model); [6],1197.31 mm^3
same,Average Tumor Volumes,LU6405 cells (PDX model); [7],1540.74 mm^3
same,Average Tumor Volumes,LU6405 cells (PDX model); [8],1655.49 mm^3
same,Average Tumor Volumes,KYSE-410 cells; [1],311.84 mm^3
same,Average Tumor Volumes,KYSE-410 cells; [2],199.20 mm^3
same,Average Tumor Volumes,"KYSE-410 cells; Day 16 post implant, p.o. daily from Day 11: Compound 478 100 mg/kg",135.30 mm^3
same,Average Tumor Volumes,KYSE-410 cells; [3],114.40 mm^3
same,Average Tumor Volumes,KYSE-410 cells; [4],114.08 mm^3
same,Average Tumor Volumes,"KYSE-410 cells; Day 23 post implant, p.o. daily from Day 11: Compound 478 100 mg/kg",132.92 mm^3
same,Average Tumor Volumes,KYSE-410 cells; [5],141.90 mm^3
same,Average Tumor Volumes,KYSE-410 cells; [6],144.36 mm^3
same,Average Tumor Volumes,"KYSE-410 cells; Day 30 post implant, p.o. daily from Day 11: Compound 478 100 mg/kg",166.46 mm^3
same,Average Tumor Volumes,KYSE-410 cells; [7],163.92 mm^3
same,Average Tumor Volumes,"KYSE-410 cells; Day 35 post implant, p.o. daily from Day 11: Compound 478 100 mg/kg",181.68 mm^3
same,Average Tumor Volumes,"KYSE-410 cells; Day 37 post implant, p.o. daily from Day 11: Compound 478 100 mg/kg",198.34 mm^3
same,Average Tumor Volumes,H2122 cells; [1],324.86 mm^3
same,Average Tumor Volumes,"H2122 cells; Day 13 post implant, p.o. daily from Day 11: Compound 478 100 mg/kg",429.76 mm^3
same,Average Tumor Volumes,"H2122 cells; Day 15 post implant, p.o. daily from Day 11: Compound 478 100 mg/kg",573.36 mm^3
same,Average Tumor Volumes,H2122 cells; [3],694.70 mm^3
same,Average Tumor Volumes,"H2122 cells; Day 20 post implant, p.o. daily from Day 11: Compound 478 100 mg/kg",850.85 mm^3
same,Average Tumor Volumes,"H2122 cells; Day 22 post implant, p.o. daily from Day 11: Compound 478 100 mg/kg",931.53 mm^3
same,Average Tumor Volumes,H2122 cells; [5],1153.42 mm^3
same,Average Tumor Volumes,"H2122 cells; Day 27 post implant, p.o. daily from Day 11: Compound 478 100 mg/kg",1307.50 mm^3
same,Average Tumor Volumes,"H2122 cells; Day 29 post implant, p.o. daily from Day 11: Compound 478 100 mg/kg",1137.09 mm^3
same,Average Tumor Volumes,H2122 cells; [7],1403.33 mm^3
same,Average Tumor Volumes,H2122 cells; [8],1830.13 mm^3
same,tumor growth inhibition,"H2122 cells; H2122 tumor bearing mice, Day 22 (Treatment Day 10), single agent, Compound 478 100 mg/kg, afatinib 12.5 mg/kg p.o. daily",41%
